From paper PMC8868518, “Exploring Titanium(IV) Complexes as Potential Antimicrobial Compounds” (Antibiotics, 2022)
Counter-ions that a name gives are not always drawn. Like-named read-outs stand apart in the source and are kept apart here.

Assays:
[1] = system: S. aureus MRSA (ATCC 43300); test: CO-ADD antibacterial assay, growth inhibition (OD600); assay type: cell-based, Staphylococcus aureus
Method: (§1) Dry compounds ranging from 1–2 mg were weighed into properly labeled Eppendorf tubes and sealed with parafilm. The compounds were used as received by the CO-ADD. For the screenings, most compounds were dissolved to a stock concentration of 10 mg/mL in DMSO. K2[Ti(Citrate)3], Na3Citrate, and K2[TiO(Oxalate)2] were dissolved in warm water. […] Samples were diluted in water to a final testing concentration of 32 µg/mL while keeping the final co-solvent concentration to a maximum of 0.5%. Where applicable, compounds were serially diluted 1:2 fold eight times. Each sample concentration was prepared in 384-well plates, non-binding surface plate (NBS; Corning 3640) for each bacterial/fungal strain, tissue-culture treated (TC-treated; Corning 3712/3764), black for mammalian cell types and polypropylene 384-well (PP; Corning 3657) for hemolysis assays, all in duplicate (n = 2), and keeping the final DMSO concentration to a maximum of 0.5%. All sample preparation was conducted using liquid handling robots.
(§2) For the bacterial assays, four Gram-negative bacteria (E. coli (ATCC 25922, Manassas, VA, USA); K. pneumoniae (ATCC 700603), A. baumannii; (ATCC 19606), and P. aeruginosa (ATCC 27853) and the Gram-positive bacteria (S. aureus MRSA (ATCC 43300) were used. Each strain was cultured in cation-adjusted Mueller Hinton broth (CAMHB; Bacto Laboratories 212322, Mount Pritchard, Australia) at 37 °C overnight. A sample of each culture was then diluted 40-fold in fresh CAMHB and incubated at 37 °C for 1.5–3 h. The resultant mid-log phase cultures were diluted with CAMHB (CFU/mL measured by OD600), then added to each well of the compound-containing plates (384-well non-binding surface (NBS) plates; Corning CLS3640, Millipore Sigma, Burlington, MA, USA), giving a cell density of 5 × 10^5 CFU/mL and a total volume of 50 µL. Plates were covered and incubated at 37 °C for 18 h without shaking. Inhibition of bacterial growth was determined by measuring absorbance at 600 nm (OD600) with a Tecan M1000 Pro monochromator plate reader, using media-only as negative control and bacteria without inhibitors as a positive control. […] Colistin sulfate (Sigma C4461) and vancomycin HCl (Sigma 861987) were used as internal controls on each plate for Gram-negative and Gram-positive bacteria, respectively.

[2] = system: A. baumannii (ATCC 19606); test: as above; assay type: cell-based, Acinetobacter baumannii; details: up to 32 μg/mL
Method: as §1, §2

E. coli (ATCC 25922) = test: as above; assay type: cell-based, Escherichia coli; details: up to 32 μg/mL
Method: as §1, §2

[3] = system: K. pneumoniae (ATCC 700603); test: as above; assay type: cell-based, Klebsiella pneumoniae; details: up to 32 μg/mL
Method: as §1, §2

[4] = system: P. aeruginosa (ATCC 27853); test: as above; assay type: cell-based, Pseudomonas aeruginosa; details: up to 32 μg/mL
Method: as §1, §2

C. albicans (ATCC 90028) = test: CO-ADD antifungal assay, growth inhibition (OD630); assay type: cell-based, Candida albicans; details: up to 32 μg/mL
Method: (§3) The compounds were used as received by the CO-ADD. For the screenings, most compounds were dissolved to a stock concentration of 10 mg/mL in DMSO. K2[Ti(Citrate)3], Na3Citrate, and K2[TiO(Oxalate)2] were dissolved in warm water. [Cu(Deferasirox)(H2O)]2 was dissolved in pyridine after its solubility was determined to be excellent in pyridine due to coordination of the solvent to the metal producing [Cu(Deferasirox)(pyridine)]2 in situ. […] Each sample concentration was prepared in 384-well plates, non-binding surface plate (NBS; Corning 3640) for each bacterial/fungal strain, tissue-culture treated (TC-treated; Corning 3712/3764), black for mammalian cell types and polypropylene 384-well (PP; […] All sample preparation was conducted using liquid handling robots. For the fungal assays, the fungi (C. albicans (ATCC 90028) and C. neoformans) (ATCC 208821) were used. Both fungi (yeast) strains were cultured for 3 days on Yeast Extract-Peptone Dextrose (YPD; Becton Dickinson 242720, Thermo Fisher Scientific, Waltham, MA, USA) agar at 30 °C. A yeast suspension of 1 × 10^6 to 5 × 10^6 CFU/mL (as determined by OD530) was prepared from five colonies from the agar plates, subsequently diluted with Yeast Nitrogen Base media (YNB; Becton Dickinson 233520, Thermo Fisher Scientific, Waltham, MA, USA), and added to each well of the compound-containing plates (384-well plates, NBS; Corning CLS3640) giving a final cell density of 2.5 × 10^3 CFU/mL and a total volume of 50 μL. Plates were covered and incubated at 35 °C for 36 h without shaking. […] Sigma R7017) and incubation at 35 °C for 2 h, using media-only as a negative control and fungi without inhibitors as a positive control. […] Fluconazole (Sigma F8929) was used as an internal control on each plate for both strains.

[5] = system: C. neoformans (ATCC 208821); test: CO-ADD antifungal assay, growth inhibition (resazurin, OD600-570); assay type: cell-based, Cryptococcus neoformans; details: up to 32 μg/mL
Method: as §3

MRC-5 cells [6] = details: cited from earlier work
[7] = cited from earlier work
MRC-5 cells [8] = test: MRC-5 cell viability, dose-response treatment, MTT assay; assay type: cell-based, human; details: MRC-5 cells, MTT, 72 h, pH 7.4, n = 6, this work
Method: A thawed stock of MRC-5 cells was washed with 1X PBS and resuspended in phenol red DMEM media (supplemented with 10% FBS and 1% of penicillin-streptomycin) and then seeded in a 100 mm × 20 mm (complete, O.D. x H) petri dish and grown in a 5% (v/v) CO2 humidified atmosphere at 37 °C. At least three passages were performed to ensure the integrity of the cells. After this point, cells were collected, thoroughly washed with 1X PBS, and then resuspended in phenol red-free DMEM (supplemented with 10% FBS, 1% Streptomycin/Penicillin, and 2.4 mM L-glutamine) at a 2.0 × 10^5 cells/mL concentration. Approximately 100 µL of the cell solution was seeded into wells of several 96-well plates to begin the MTT assay, which was performed in the 5% (v/v) CO2 humidified atmosphere at 37 °C. At least one lane of wells in each plate was supplied media without cells as a control. […] Most of the compounds were dissolved in 1X PBS buffer at pH 7.4. […] Titanocene dichloride was prepared as a fresh stock solution in DMSO and then diluted in 0.1 M NaCl (aq) instead of 1X PBS (to minimize hydrolysis induced precipitation) to the desired concentration while maintaining a constant 1% (v/v) DMSO background (0.5% DMSO after mixing with the well media). A control of cells treated with media containing 1% (v/v) DMSO was included in the study. The titanocene solutions were used within an hour of preparation in the final cell solution. […] At 3 h before a total of 72 h of incubation with the compounds, the cells were treated with 25 µL of 9 mg/mL MTT prepared in 1X PBS and sterile-filtered. Upon completion of the three hours, 50 µL of 10% (w/v) SDS (prepared in 0.1 M Tris buffer at pH 11) was added to solubilize the purple formazan product crystals and left overnight in the incubator. Control wells in the plates consisted of: (1) Untreated cells + MTT as the measure of 100% viable cell growth in the media and (2) Media with no cells + MTT as the measure of zero cells in the media. Two sets of compounds could be tested per plate. The plates were read at the wavelength of 570 nm (absorbance of the formazan product at pH 10.0) and 800 nm (background control) using a Tecan plate reader. The absorbance of all wells was compared to the absorbance of the untreated cells with the MTT set as the 100% viable cell standard and the absorbance of the zero cell control set as the 0% viable cell standard. […] Nonlinear regression in Origin 8.5 was utilized to fit the growth curves using the pharmacology dose–response equation to determine the half-maximal inhibitory concentration (IC50) and the corresponding standard deviation. All samples were tested six times.

[9] = system: HEK293 ATCC CRL-1573 human embryonic kidney cells; test: CO-ADD cytotoxicity assay (resazurin); assay type: cell-based; details: at the maximum concentration tested
Method: The compounds were used as received by the CO-ADD. For the screenings, most compounds were dissolved to a stock concentration of 10 mg/mL in DMSO. K2[Ti(Citrate)3], Na3Citrate, and K2[TiO(Oxalate)2] were dissolved in warm water. [Cu(Deferasirox)(H2O)]2 was dissolved in pyridine after its solubility was determined to be excellent in pyridine due to coordination of the solvent to the metal producing [Cu(Deferasirox)(pyridine)]2 in situ. […] Each sample concentration was prepared in 384-well plates, non-binding surface plate (NBS; Corning 3640) for each bacterial/fungal strain, tissue-culture treated (TC-treated; Corning 3712/3764), black for mammalian cell types and polypropylene 384-well (PP; […] All sample preparation was conducted using liquid handling robots. HEK293 ATCC CRL-1573 human embryonic kidney cells were counted manually in a Neubauer hemocytometer and added to compound-containing plates (384-well plates, tissue culture-treated (TC); […] Life Technologies 11995-073) with 10% FBS (GE SH30084.03).

[10] = predicted or measured MIC, lowest concentration with ≥75% growth inhibition, 0.25-32 μg/mL, 18 h
[11] = predicted or measured MIC, ≥75% growth inhibition
[12] = predicted or measured MIC, ≥75% growth inhibition, 36 h

Ti(BHPT)2 [Compound 9]
activity against MRSA (in words) ([1]; CO-ADD screen, 32 μg/mL): inactive
MIC S. aureus (MRSA) [1, 10]: >32 µg/mL
Dmax S. aureus (MRSA), maximum % inhibition ([1]; up to 32 μg/mL): 7.82%
MIC A. baumannii [2, 11]: >32 µg/mL
Dmax A. baumannii, maximum % inhibition [2]: 1.55%
MIC E. coli (E. coli (ATCC 25922); [11]): >32 µg/mL
Dmax E. coli, maximum % inhibition (E. coli (ATCC 25922)): −0.56%
MIC K. pneumoniae [3, 11]: >32 µg/mL
Dmax K. pneumoniae, maximum % inhibition [3]: 6.35%
MIC P. aeruginosa [4, 11]: >32 µg/mL
Dmax P. aeruginosa, maximum % inhibition [4]: 10.27%
MIC C. albicans (C. albicans (ATCC 90028); [12]): >32 µg/mL
Dmax C. albicans, maximum % inhibition (C. albicans (ATCC 90028)): 4.27%
MIC C. neoformans [5, 12]: >32 µg/mL
Dmax C. neoformans, maximum % inhibition [5]: −1.7%
IC50 (MRC-5 cells [6]; approximated relative IC50, compound inhibits proliferation at a maximum of 25%, read-out: IC50 (µM), approximated relative IC50): ~2.4 µM
IC50 (µg/mL), approximated relative IC50 (MRC-5 cells [6]; approximated relative IC50, compound inhibits proliferation at a maximum of 25%): ~1.5 µg/mL
solution stability (in words) ([7]; pH 4): highly stable in solution

[Cl-].[Cl-].[Ti+4].c1cc[cH-]c1.c1cc[cH-]c1 [Compound 13, Bis(cyclopentadienyl)titanium(IV) dichloride, reference compound]
IC50 ± SD (µg/mL) (MRC-5 cells [8]): >>24.9 µg/mL
IC50 (MRC-5 cells [8]; read-out: IC50 ± SD): > 100 µM
MIC S. aureus (MRSA) [1, 10]: >32 µg/mL
Dmax S. aureus (MRSA), maximum % inhibition ([1]; up to 32 μg/mL): 51.55%
MIC A. baumannii [2, 11]: >32 µg/mL
Dmax A. baumannii, maximum % inhibition [2]: 15.78%
MIC E. coli (E. coli (ATCC 25922); [11]): >32 µg/mL
Dmax E. coli, maximum % inhibition (E. coli (ATCC 25922)): 23.76%
MIC K. pneumoniae [3, 11]: >32 µg/mL
Dmax K. pneumoniae, maximum % inhibition [3]: 16.65%
MIC P. aeruginosa [4, 11]: >32 µg/mL
Dmax P. aeruginosa, maximum % inhibition [4]: 16.01%
MIC C. albicans (C. albicans (ATCC 90028); [12]): >32 µg/mL
Dmax C. albicans, maximum % inhibition (C. albicans (ATCC 90028)): 16.15%
MIC C. neoformans [5, 12]: >32 µg/mL
Dmax C. neoformans, maximum % inhibition [5]: 6.5%
solution stability (in words) ([7]; pH 7.4): extremely hydrolysis prone

O=C(O)CN(CCN(CC(=O)O)Cc1ccccc1O)Cc1ccccc1O [Compound 5, N,N′-di(o-hydroxybenzyl)ethylenediamine-N,N′-diacetic acid monohydrochloride hydrate, reference compound]
MIC ([1]; Staphylococcus aureus, predicted or measured MIC, lowest concentration with ≥75% growth inhibition, 0.25-32 μg/mL, 18 h): > 32 µg/mL
Dmax ([1]; Staphylococcus aureus, up to 32 μg/mL, read-out: Dmax S. aureus (MRSA), maximum % inhibition): 24.3%
MIC ([2]; Acinetobacter baumannii, ATCC19606, predicted or measured MIC, ≥75% growth inhibition): > 32 µg/mL
Dmax ([2]; Acinetobacter baumannii, ATCC19606, read-out: Dmax A. baumannii, maximum % inhibition): 68.3%
MIC (E. coli (ATCC 25922); Escherichia coli, ATCC25922, predicted or measured MIC, ≥75% growth inhibition): > 32 µg/mL
Dmax (E. coli (ATCC 25922); Escherichia coli, ATCC25922, read-out: Dmax E. coli, maximum % inhibition): 51.6%
MIC ([3]; Klebsiella pneumoniae, ATCC700603, predicted or measured MIC, ≥75% growth inhibition): > 32 µg/mL
Dmax ([3]; Klebsiella pneumoniae, ATCC700603, read-out: Dmax K. pneumoniae, maximum % inhibition): 52.9%
MIC ([4]; Pseudomonas aeruginosa, ATCC27853, predicted or measured MIC, ≥75% growth inhibition): > 32 µg/mL
Dmax ([4]; Pseudomonas aeruginosa, ATCC27853, read-out: Dmax P. aeruginosa, maximum % inhibition): 69%
MIC (C. albicans (ATCC 90028); Candida albicans, ATCC90028, predicted or measured MIC, ≥75% growth inhibition, 36 h): > 32 µg/mL
Dmax (C. albicans (ATCC 90028); Candida albicans, ATCC90028, read-out: Dmax C. albicans, maximum % inhibition): 3.5%
MIC ([5]; Cryptococcus neoformans, ATCC208821, predicted or measured MIC, ≥75% growth inhibition, 36 h): > 32 µg/mL
Dmax ([5]; Cryptococcus neoformans, ATCC208821, read-out: Dmax C. neoformans, maximum % inhibition): -17.5%
inhibition of HEK293 cell proliferation [9]: ~50%
IC50 ± SD (µg/mL) (MRC-5 cells [6]): >>44.3 µg/mL
IC50 (MRC-5 cells [6]; read-out: IC50 ± SD): > 100 µM
